From ChEMBL document CHEMBL1201862, “PubChem BioAssay data set” (2004)
Active and inactive are the calls of the source.

How the values were obtained:
Escherichia coli = assay: microbe, parasite or virus in culture
[1] = molecular target: T1, Calpain-2 catalytic subunit (Sus scrofa, UniProt P43367); assay: pig calpain II inhibitor potency, dose response, biochemical, fluorogenic peptide substrate (AID 1420); format: functional
T1 sequence (P43367 whole entry): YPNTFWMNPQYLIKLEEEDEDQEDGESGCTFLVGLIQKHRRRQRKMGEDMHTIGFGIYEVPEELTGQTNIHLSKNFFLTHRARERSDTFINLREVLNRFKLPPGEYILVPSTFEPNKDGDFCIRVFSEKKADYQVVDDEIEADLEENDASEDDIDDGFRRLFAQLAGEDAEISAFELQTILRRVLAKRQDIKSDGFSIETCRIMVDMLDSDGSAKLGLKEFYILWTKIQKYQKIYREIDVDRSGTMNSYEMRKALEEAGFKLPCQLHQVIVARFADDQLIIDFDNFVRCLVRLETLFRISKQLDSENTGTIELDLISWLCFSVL

[2] = cytotoxicity in HMLE control line with eGFP shRNA, dose response, counter-screen for HMLE_sh_ECad selective toxicity project, cell-based, HMLE_sh_eGFP, luminescence (AID 463074); format: functional, Homo sapiens;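 note: HMLE human mammary epithelial cells expressing control shRNA against eGFP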
[3] = Luminescence Cell-Based Dose Retest to Confirm Inhibitors of Cancer Stem Cells. [Related pubchem assays (depositor defined):AID2717, AID2721]; format: functional; settings: Homo sapiens
[4] = HEp-2 cell cytotoxicity, dose response, cytotoxicity control for RSV inhibitor project, HTS (AID 2410); format: functional; settings: human respiratory syncytial virus
HEK293 [5] = assay: cells; settings: Homo sapiens
HEK293 [6] = assay: cells; settings: Homo sapiens; remark: listed apart in the source
[7] = molecular target: T2, Alkaline phosphatase, tissue-nonspecific isozyme (Homo sapiens, UniProt P05186); assay: TNAP enzyme inhibition by screening hits, dose response, selectivity assay for mouse IAP inhibitor project, biochemical, human TNAP, uHTS hits (AID 488906); format: functional
T2 sequence (P05186 whole entry): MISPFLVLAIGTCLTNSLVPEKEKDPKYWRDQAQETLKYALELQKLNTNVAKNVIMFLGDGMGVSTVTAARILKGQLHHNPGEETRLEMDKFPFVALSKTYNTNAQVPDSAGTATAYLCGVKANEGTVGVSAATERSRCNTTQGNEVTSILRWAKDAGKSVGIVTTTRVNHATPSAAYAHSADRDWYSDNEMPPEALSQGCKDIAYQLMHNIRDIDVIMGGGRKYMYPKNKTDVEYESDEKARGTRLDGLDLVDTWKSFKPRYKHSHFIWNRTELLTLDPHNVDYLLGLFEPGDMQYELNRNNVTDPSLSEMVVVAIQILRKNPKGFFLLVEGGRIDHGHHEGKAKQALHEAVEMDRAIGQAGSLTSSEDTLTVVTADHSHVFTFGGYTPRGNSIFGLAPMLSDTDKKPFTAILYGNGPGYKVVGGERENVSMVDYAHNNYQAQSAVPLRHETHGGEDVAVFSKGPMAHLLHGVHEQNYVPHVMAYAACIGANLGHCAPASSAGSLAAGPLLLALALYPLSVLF

[8] = molecular target: T3, Intestinal-type alkaline phosphatase (Homo sapiens, UniProt P09923); assay: inhibition of human intestinal alkaline phosphatase – biochemical, dose response (AID 488876); format: functional
[9] = molecular target: Intestinal-type alkaline phosphatase (Mus musculus, UniProt P24822); assay: PubChem AID 488785; format: functional
[10] = molecular target: Delta-type opioid receptor (Homo sapiens, UniProt P41143); assay: Counterscreen for agonists of heterodimerization of the mu 1 (OPRM1) and delta 1 (OPRD1) opioid receptors: Luminescence-based cell-based high throughput dose response assay to identify agonists of OPRD1 homodimerization. [Related pubchem assays (depositor defined):AID504326, AID504355, AID504692, AID504904, AID504905]; format: functional
[11] = molecular target: 5-hydroxytryptamine receptor 5A (Homo sapiens, UniProt P47898); assay: Counterscreen for agonists of OPRM1-OPRD1 heterodimerization: luminescence-based cell-based high throughput dose response assay to identify agonists of 5-hydroxytryptamine (serotonin) 5A receptor (HTR5A). [Related pubchem assays (depositor defined):AID504326, AID504355, AID504692, AID504904, AID504905]; format: functional
[12] = molecular target: Induced myeloid leukemia cell differentiation protein Mcl-1 (Homo sapiens, UniProt Q07820); format: functional
Mu-type opioid receptor = Mu-type opioid receptor (Homo sapiens, UniProt P35372); assay: Counterscreen for agonists of heterodimerization of the mu 1 (OPRM1) and delta 1 (OPRD1) opioid receptors: Luminescence-based cell-based high throughput dose response assay to identify agonists of OPRM1 homodimerization.; format: functional;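 note: U2OS cells expressing OPRM1 and beta-arrestin as split beta-galactosidase partners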
[13] = molecular target: T4, Carboxy-terminal domain RNA polymerase II polypeptide A small phosphatase 1 (Homo sapiens, UniProt Q9GZU7); assay: inhibitors of CTDSP1, concentration-response testing, biochemical assay, absorbance-based, actives from ultra-high-throughput screening (AID 540297); format: functional
T4 sequence (Q9GZU7 whole entry): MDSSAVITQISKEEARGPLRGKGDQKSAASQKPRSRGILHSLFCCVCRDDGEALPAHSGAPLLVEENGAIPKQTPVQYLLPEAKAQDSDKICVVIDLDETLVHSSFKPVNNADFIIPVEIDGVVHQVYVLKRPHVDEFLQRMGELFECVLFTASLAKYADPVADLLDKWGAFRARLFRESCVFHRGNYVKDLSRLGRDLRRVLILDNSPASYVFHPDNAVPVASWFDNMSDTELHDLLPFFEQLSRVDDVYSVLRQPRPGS

Beta-galactosidase = Beta-galactosidase (Escherichia coli, UniProt Q8VNN2); assay: PubChem AID 485352; format: functional
[14] = molecular target: Heat shock protein HSP 90-alpha (Homo sapiens, UniProt P07900); format: functional, organism-based
[15] = molecular target: T5, Type-1 angiotensin II receptor (Homo sapiens, UniProt P30556); assay: AT1 receptor antagonists, dose response, selectivity assay for APJ receptor antagonist project, cell-based, uHTS hits (AID 463214); format: functional;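 note: antagonist potency against angiotensin II stimulated AT1 response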
T5 sequence (P30556 whole entry): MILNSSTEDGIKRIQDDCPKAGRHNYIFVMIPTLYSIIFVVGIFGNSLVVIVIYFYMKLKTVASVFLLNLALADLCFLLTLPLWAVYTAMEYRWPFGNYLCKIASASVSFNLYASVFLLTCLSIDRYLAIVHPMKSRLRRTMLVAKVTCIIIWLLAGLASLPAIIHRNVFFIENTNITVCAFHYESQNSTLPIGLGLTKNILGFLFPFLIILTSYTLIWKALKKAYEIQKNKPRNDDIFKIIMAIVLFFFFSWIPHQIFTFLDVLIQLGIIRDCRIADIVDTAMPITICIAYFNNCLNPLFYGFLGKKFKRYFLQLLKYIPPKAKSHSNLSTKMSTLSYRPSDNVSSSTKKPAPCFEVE

Phospholipase A2 = Phospholipase A2 (Homo sapiens, UniProt P04054); format: functional;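 note: confirmatory dose-response counterscreen on phospholipase A2, testing hits that came from an ultra-high-throughput screen for ATG4B inhibitors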
Cysteine protease ATG4B = molecular target: T6, Cysteine protease ATG4B (Homo sapiens, UniProt Q9Y4P1); format: functional;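 note: Fluorescence-based dose-response confirmation assay measuring inhibition of ATG4B activity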
T6 sequence (Q9Y4P1 whole entry): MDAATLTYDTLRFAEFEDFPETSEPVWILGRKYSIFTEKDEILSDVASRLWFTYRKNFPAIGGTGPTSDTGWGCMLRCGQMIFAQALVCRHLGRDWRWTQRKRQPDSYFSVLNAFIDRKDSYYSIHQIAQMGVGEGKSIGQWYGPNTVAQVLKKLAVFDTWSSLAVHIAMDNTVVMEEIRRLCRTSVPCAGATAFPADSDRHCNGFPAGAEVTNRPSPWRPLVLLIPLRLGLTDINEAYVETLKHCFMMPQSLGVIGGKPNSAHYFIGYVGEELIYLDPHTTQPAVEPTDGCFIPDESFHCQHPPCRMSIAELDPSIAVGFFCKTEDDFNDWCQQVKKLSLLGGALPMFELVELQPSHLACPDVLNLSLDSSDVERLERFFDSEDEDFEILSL

[16] = molecular target: Dual specificity tyrosine-phosphorylation-regulated kinase 1A (Rattus norvegicus, UniProt Q63470); format: biochemical, Homo sapiens
Streptococcus = assay: Group A Streptococcus viability loss, dose response, counter-screen for streptokinase expression inhibitor project, luminescence, BacTiterGlo (AID 1915); format: functional, organism-based;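 note: potency for reduction of bacterial viability or growth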
Streptokinase A = molecular target: T7, Streptokinase A (Streptococcus pyogenes serotype M1, UniProt P10520); assay: S. pyogenes streptokinase expression inhibitors, potency, dose response, plasminogen activation absorbance, OD405 (AID 1914); format: functional, Streptococcus pyogenes M1 GAS;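 note: secreted streptokinase activity via plasminogen activation per viability signal from cell pellet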
T7 sequence (P10520 whole entry): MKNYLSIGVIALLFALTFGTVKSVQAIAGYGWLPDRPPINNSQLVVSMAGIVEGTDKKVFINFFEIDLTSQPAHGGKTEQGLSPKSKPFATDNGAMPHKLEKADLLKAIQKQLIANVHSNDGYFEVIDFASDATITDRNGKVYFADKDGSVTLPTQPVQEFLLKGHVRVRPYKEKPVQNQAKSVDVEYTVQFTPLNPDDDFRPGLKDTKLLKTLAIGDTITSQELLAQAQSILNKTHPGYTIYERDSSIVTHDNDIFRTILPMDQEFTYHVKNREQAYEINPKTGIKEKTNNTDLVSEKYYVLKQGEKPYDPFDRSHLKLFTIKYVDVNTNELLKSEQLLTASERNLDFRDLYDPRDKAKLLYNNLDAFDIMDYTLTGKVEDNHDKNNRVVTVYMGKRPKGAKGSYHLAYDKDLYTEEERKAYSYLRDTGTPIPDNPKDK

[17] = test system: Streptococcus sp. 'group A'; assay: growth inhibition of control SK(-) GAS strain, dose response, counter-screen for streptokinase expression inhibitor project, luminescence, kanamycin, BacTiterGlo, confirmation (AID 1900); format: functional, organism-based
[18] = molecular target: Cyclin-dependent kinase 5/CDK5 activator 1 (Homo sapiens, UniProt Q00535); assay: CDK5/p35 kinase inhibitors, dose response, biochemical, cherry-picked samples, set 2 (AID 504545)
Large T antigen = Large T antigen (Simian virus 40, UniProt P03070); format: functional, Betapolyomavirus macacae;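 note: Confirmatory-stage PubChem screen for compounds that inhibit SV40 T antigen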
[19] = molecular target: T3, Intestinal-type alkaline phosphatase; assay: activation of human intestinal alkaline phosphatase – biochemical, dose response (AID 488873); format: functional

Sequence of Beta-galactosidase (Q8VNN2 whole entry): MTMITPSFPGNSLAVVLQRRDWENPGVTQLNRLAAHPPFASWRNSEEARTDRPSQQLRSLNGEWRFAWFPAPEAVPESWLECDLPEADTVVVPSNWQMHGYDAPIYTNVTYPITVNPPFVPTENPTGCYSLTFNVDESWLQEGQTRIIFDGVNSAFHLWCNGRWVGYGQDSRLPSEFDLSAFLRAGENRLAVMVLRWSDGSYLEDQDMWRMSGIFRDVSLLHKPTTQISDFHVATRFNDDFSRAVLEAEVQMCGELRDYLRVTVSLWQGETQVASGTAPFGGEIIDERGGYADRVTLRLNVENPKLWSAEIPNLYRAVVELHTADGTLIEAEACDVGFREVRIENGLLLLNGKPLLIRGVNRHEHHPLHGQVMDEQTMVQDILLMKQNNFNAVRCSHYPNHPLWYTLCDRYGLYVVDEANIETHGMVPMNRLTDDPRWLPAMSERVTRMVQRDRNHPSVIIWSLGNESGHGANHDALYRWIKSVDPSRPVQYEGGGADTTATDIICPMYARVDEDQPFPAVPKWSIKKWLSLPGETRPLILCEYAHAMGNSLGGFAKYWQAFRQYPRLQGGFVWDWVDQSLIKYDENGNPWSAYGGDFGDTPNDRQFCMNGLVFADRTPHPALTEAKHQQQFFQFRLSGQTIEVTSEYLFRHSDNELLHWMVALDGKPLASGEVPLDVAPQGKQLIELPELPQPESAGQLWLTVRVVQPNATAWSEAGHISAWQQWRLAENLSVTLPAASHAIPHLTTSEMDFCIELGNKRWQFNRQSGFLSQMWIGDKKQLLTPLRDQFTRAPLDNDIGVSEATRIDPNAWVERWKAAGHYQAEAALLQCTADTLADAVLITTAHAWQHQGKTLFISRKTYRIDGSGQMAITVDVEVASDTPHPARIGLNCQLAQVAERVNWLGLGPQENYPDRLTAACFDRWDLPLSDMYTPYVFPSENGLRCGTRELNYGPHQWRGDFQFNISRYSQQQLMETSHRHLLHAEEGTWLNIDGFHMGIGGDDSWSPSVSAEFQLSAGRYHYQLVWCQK
Sequence of Phospholipase A2 (P04054 whole entry): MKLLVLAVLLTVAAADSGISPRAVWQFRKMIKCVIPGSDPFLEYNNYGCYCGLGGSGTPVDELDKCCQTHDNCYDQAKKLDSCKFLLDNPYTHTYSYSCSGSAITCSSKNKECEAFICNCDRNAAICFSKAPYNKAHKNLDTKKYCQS
T3 sequence (P09923 whole entry): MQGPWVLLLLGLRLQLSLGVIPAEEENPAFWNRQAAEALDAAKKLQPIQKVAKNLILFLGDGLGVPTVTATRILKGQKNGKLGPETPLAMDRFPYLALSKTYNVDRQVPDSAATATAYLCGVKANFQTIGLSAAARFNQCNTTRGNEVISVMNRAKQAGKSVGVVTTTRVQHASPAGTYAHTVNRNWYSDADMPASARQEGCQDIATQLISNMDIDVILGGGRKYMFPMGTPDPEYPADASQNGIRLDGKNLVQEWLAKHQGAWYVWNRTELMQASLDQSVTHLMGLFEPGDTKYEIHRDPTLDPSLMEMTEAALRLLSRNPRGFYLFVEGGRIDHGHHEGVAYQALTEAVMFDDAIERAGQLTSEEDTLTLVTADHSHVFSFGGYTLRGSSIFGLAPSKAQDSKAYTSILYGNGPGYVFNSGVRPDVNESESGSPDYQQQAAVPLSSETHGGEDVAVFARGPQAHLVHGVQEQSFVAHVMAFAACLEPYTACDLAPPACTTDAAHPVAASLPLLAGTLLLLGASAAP
Sequence of Intestinal-type alkaline phosphatase (Mus musculus, UniProt P24822) (P24822 whole entry): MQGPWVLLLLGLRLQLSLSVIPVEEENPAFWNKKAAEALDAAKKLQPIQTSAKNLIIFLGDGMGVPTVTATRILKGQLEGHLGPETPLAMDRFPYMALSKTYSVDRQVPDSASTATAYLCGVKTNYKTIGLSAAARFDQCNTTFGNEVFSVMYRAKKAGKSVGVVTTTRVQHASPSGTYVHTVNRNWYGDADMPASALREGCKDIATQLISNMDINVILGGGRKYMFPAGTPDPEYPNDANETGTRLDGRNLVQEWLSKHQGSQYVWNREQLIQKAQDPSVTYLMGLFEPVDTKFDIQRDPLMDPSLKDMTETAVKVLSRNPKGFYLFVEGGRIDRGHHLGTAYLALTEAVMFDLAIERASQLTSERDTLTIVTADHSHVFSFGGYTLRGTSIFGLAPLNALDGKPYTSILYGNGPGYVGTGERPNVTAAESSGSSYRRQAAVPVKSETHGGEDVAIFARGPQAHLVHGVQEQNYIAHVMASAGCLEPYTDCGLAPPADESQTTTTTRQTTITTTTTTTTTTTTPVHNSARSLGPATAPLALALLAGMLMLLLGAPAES
Sequence of Mu-type opioid receptor (P35372 whole entry, the tested form may be a part): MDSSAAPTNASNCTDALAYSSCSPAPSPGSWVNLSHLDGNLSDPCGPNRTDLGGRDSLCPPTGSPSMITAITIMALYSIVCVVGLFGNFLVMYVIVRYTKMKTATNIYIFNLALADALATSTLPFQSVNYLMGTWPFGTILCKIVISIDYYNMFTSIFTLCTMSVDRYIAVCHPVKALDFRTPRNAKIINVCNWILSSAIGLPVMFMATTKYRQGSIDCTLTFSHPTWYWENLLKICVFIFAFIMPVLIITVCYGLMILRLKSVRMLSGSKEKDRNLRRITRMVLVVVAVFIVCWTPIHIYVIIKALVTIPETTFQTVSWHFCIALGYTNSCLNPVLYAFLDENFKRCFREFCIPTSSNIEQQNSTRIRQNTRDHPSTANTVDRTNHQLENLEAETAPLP
Sequence of 5-hydroxytryptamine receptor 5A (P47898 whole entry): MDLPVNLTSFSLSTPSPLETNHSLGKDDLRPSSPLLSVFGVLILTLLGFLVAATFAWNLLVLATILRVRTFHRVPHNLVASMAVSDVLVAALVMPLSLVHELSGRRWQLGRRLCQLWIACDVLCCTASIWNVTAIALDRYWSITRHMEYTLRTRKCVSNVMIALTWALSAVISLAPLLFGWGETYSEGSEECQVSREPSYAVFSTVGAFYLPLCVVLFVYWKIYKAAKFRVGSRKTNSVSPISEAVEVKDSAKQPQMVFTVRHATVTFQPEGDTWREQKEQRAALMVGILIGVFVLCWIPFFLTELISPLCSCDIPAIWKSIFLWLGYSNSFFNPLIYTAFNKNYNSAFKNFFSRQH
Sequence of Delta-type opioid receptor (P41143 whole entry): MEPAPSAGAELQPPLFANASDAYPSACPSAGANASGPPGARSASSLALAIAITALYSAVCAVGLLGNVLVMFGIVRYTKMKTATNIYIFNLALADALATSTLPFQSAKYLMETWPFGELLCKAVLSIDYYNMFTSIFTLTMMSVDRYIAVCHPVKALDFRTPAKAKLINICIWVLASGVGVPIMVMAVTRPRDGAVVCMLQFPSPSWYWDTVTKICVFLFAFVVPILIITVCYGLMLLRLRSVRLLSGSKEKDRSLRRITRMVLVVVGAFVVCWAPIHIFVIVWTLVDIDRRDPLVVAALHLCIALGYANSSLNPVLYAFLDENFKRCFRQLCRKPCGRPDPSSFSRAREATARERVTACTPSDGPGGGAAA
Sequence of Cyclin-dependent kinase 5/CDK5 activator 1 (Q00535 whole entry): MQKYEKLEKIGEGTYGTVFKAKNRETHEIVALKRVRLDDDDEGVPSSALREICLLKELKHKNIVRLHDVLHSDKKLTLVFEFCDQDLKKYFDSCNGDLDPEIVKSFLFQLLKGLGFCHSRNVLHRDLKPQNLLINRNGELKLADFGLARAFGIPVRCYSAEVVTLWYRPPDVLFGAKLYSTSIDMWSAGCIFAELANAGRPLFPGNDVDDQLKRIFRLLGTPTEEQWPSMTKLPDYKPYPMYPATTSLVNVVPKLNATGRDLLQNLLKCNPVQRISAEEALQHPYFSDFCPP
Sequence of Cyclin-dependent kinase 5/CDK5 activator 1 (Q15078 whole entry, further chain): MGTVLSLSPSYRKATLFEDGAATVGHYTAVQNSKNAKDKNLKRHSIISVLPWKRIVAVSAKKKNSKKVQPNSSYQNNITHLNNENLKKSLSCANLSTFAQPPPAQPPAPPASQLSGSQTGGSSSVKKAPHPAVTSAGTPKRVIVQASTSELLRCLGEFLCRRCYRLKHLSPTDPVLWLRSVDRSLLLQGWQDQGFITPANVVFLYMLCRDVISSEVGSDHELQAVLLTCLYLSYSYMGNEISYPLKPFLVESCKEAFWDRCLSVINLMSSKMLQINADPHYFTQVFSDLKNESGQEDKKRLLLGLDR
Sequence of Induced myeloid leukemia cell differentiation protein Mcl-1 (Q07820 whole entry): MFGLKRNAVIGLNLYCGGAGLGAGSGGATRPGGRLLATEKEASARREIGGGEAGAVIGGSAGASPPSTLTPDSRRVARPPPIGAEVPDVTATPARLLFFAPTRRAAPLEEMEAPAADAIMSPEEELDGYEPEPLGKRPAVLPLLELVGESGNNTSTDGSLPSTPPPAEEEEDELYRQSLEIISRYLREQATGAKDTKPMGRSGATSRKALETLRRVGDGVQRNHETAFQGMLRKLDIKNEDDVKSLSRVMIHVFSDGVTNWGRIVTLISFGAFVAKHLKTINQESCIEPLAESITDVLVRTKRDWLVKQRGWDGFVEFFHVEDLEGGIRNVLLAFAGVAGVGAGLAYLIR

CCCN(Cc1ccccc1)C(S)=Nc1ccc(SC(F)F)cc1
AC50 (Escherichia coli): 41.9 µM (active)
IC50 [1]: 18.1 µM (not active)

Fc1ccc(N/N=C/c2ccncc2)c(F)c1
AC50 [2]: 102 µM (active)
AC50 [3]: 43.7 µM (active)

COc1ccc(NC(=O)/C(C#N)=C\C=C\c2ccco2)cc1
AC50 [2]: 23.1 µM (active)
AC50 [3]: 1.36 µM (active)

CC[C@@]12C(=O)N(c3cccc(Br)c3)C(=O)N1[C@H](c1ccc(Cl)cc1)[C@@H]1C(=O)N(C3CCCCC3)C(=O)[C@@H]12
CC50 [4]: > 50 µM (active)
EC50 (HEK293 [5]): > 59.6 µM (inactive)
EC50 (HEK293 [6]): > 59.6 µM (inactive)

CCN(c1ccccc1)S(=O)(=O)c1ccc2[nH]c(=O)[nH]c2c1
IC50 [7]: 24.9 µM (active)
IC50 [8]: 33.8 µM (active)
IC50 [9]: 3.89 µM (active)

COc1cccc(C(=O)Nc2ccc3c(c2)C(=O)c2ccccc2C3=O)c1
EC50 [10]: > 92.5 µM (inactive)
EC50 [11]: > 92.5 µM (inactive)
IC50 [12]: 1.82 µM (active)
EC50 (Mu-type opioid receptor): > 92.5 µM (inactive)
IC50 [13]: 6.16 µM (active)

O=C1OCC(CO)(CO)N=C1NNc1ccc(Cl)c(Cl)c1
EC50 (Beta-galactosidase): > 40 µM (inactive)
AC50 [14]: 2.31 µM (active)
IC50 [15]: 16.6 µM (active)

N#Cc1c(NC(=O)C2CC(c3ccccc3Cl)=NO2)sc2c1CCC2 (stereo not given)
IC50 (Phospholipase A2): 3.48 µM (active)
IC50 (Cysteine protease ATG4B): 4.36 µM (active)

Cc1ccc(C(=O)COC(=O)c2cnccn2)cc1[N+](=O)[O-]
EC50 (Beta-galactosidase): > 40 µM (inactive)
IC50 [15]: 38.5 µM (not active)

O=C(Nc1cccc(-c2nn[nH]n2)c1)c1ccc(Cl)s1
AC50 [16]: 1.44 µM (active)

CCc1nn(CCCC(=O)NCc2ccccc2Br)c(=O)c2cc3occc3n12
EC50 (Streptococcus): > 150 µM (not active)
IC50 (Phospholipase A2): 20 µM (inactive)
EC50 (Streptokinase A): > 150 µM (not active)
IC50 (Cysteine protease ATG4B): 16.8 µM (active)
EC50 [17]: 1.12 µM (active)

COc1cc(/C=C2\SC(=S)N(N3CCOCC3)C2=O)ccc1O
EC50 (Beta-galactosidase): > 40 µM (inactive)
IC50 [15]: > 40 µM (not active)

CCOc1ccc(C2=CS/C(=C(\C#N)c3nnc4n3CCCCC4)N2CC)cc1
IC50 (Phospholipase A2): 8.21 µM (active)
IC50 (Cysteine protease ATG4B): 13 µM (active)

COC(=O)C1=CO[C@@H](C)[C@@H]2CN(CCc3c[nH]c4ccccc34)CC[C@H]12
EC50 [10]: > 92.4 µM (inactive)
EC50 [11]: > 92.4 µM (inactive)
EC50 (Mu-type opioid receptor): > 92.4 µM (inactive)

COc1ccc2nc3c(cc2c1)c(NC(=O)c1cccs1)nn3CC(C)C
AC50 [18]: 4.21 µM (active)
AC50 [16]: 0.43 µM (active)

O=c1oc2cc(O)ccc2s1 [TIOXOLONE]
EC50 (HEK293 [5]): > 59.6 µM (inactive)
IC50 (Large T antigen): 19 µM (active)
EC50 [19]: 8.33 µM (active)
IC50 [7]: > 100 µM (inactive)
EC50 (HEK293 [6]): > 59.6 µM (inactive)
IC50 [9]: 2.59 µM (active)
